Patent US20230114728A1 (Venatorx Pharmaceuticals, Inc., priority 2019, published 2023)

Key:
P. aeruginosa PBP3 = target: T1, P. aeruginosa PBP3 (Pseudomonas aeruginosa, UniProt G3XD46); experiment: Bocillin-FL fluorescence polarization competition binding assay, P. aeruginosa PBP3; conditions: fluorescence polarization competition binding assay using Bocillin-FL
T1 construct: made in house
How it was run: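 Inhibitor competition with Bocillin-FL for P. aeruginosa PBP3 was followed by fluorescence polarization on a Cytation3 (BioTek) reader, using g-factor 0.96, 490 nm excitation and 520 nm emission. The enzyme was at 0.75 μM and the probe at 0.1 μM in Hepes/NaCl/glycerol buffer, 80 μl per well. FP was recorded immediately after probe addition for up to 60 minutes. Potency was expressed as EC50, the concentration that reduces bound probe by 50%.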

N. gonorrhoeae PBP2 = target: T2, N. gonorrhoeae PBP2 (Neisseria gonorrhoeae, UniProt P08149); experiment: Bocillin-FL fluorescence polarization competition binding assay, N. gonorrhoeae PBP2; conditions: fluorescence polarization competition binding assay using Bocillin-FL; read-out: N. gonorrhoeae PBP2 Potency
T2 construct: made in house
Text: Example I: Experimental Method for Penicillin-Binding Protein Binding Assays with Bocillin-FL Via Fluorescence Polarization
To determine the ability of boronic acid-based test PBP inhibitors to bind Penicillin Binding Proteins (PBPs), Bocillin-FL (fluorescently-labeled penicillin V; ThermoFisher Scientific) was used in a fluorescence polarization (FP) competition binding assay to assess inhibitor binding to PBP2, PBP3 or PBP4 from Escherichia coli (K12), PBP3 from Pseudomonas aeruginosa (PA01), PBP1a, PBP2 and PBP3 from Acinetobacter baumannii (ATCC 19606), and PBP2 from Neiserria gonorrheae (FA19). PBPs were cloned and purified as described previously (E. coli PBPs, King, D. T, et al., ACS Infectious Diseases 2015, 1, 175-184; P. aeruginosa PBP3, Han et. al., PNAS 2010, 107 (51), 22002-22007; A. baumannii PBPs, Penwell et. al., Antimicrob. Agents Chemother. 2015, 59 (3), 1680-1689; N. gonorrhoeae PBP2, Singh et. al., J Biol. Chem. 2019, 294 (38), 14020-14032). To establish assay conditions for competition binding, enzyme titration/saturation binding experiments were initially performed. Bocillin-FL was prepared at 0.2 μM in a buffer comprised of 50 mM Hepes (pH 8.0), 300 mM NaCl and 5% (v/v) glycerol for reactions with E. coli, P. aeruginosa and N. gonorrhoeae PBPs, and 25 mM Tris (pH 8.0), 200 mM NaCl and 10% (v/v) glycerol and 0.005% (v/v) Tween 20 for reactions with A. baumannii PBPs. Saturation binding was performed by mixing 40 μl of PBP solutions ranging in concentrations from 0-24 μM with 40 μl of the 0.2 μM Bocillin-FL solution, in individual wells of a black 384-well microplate. FP was measured immediately upon mixing (Excitation, 490 nm; Emission, 520 nm; g-factor, 0.96), using a Cytation3 (BioTek) microplate reader and measured continuously for up to 120 minutes. […] The competition binding assay (80 μl final volume) was validated using beta-lactams and PBPs at final concentrations of: 1.5 μM, E. coli PBP3; 0.75 μM, P. aeruginosa PBP3; 1 μM A. baumannii PBP1a; 2.5 μM A. baumannii PBP2; 0.2 μM A. baumannii PBP3; and […] N. gonorrhoeae PBP2. Bocillin-FL was at 0.1 μM (0.05 μM with A. baumannii PBP1a) and beta-lactam concentrations ranged from 0-1000 μM. […] Bocillin-FL was added and the FP immediately measured for up to 60 minutes (90 minutes for E. coli PBP2). […] The beta-lactam potency was reported as the concentration of beta-lactam required to reduce the amount of PBP bound-Bocillin-FL by 50% (EC50). […] Binding assays for boronic acid PBP inhibitors were performed in an identical fashion for the respective PBPs

T1 sequence (G3XD46 whole entry): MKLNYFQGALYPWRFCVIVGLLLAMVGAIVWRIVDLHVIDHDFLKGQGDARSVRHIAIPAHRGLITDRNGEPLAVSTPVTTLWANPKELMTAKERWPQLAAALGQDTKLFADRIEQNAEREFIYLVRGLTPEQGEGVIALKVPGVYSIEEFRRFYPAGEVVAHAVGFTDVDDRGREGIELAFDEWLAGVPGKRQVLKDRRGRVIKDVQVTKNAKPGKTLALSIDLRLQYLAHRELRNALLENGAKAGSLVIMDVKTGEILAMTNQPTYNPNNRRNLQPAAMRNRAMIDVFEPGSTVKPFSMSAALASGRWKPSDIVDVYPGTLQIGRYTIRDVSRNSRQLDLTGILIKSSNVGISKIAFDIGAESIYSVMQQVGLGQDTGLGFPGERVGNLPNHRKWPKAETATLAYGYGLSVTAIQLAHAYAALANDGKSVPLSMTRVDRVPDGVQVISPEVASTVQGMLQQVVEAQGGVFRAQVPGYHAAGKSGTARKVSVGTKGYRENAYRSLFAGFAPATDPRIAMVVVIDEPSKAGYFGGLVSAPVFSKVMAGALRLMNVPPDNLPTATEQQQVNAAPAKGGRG
T2 sequence (P08149 whole entry): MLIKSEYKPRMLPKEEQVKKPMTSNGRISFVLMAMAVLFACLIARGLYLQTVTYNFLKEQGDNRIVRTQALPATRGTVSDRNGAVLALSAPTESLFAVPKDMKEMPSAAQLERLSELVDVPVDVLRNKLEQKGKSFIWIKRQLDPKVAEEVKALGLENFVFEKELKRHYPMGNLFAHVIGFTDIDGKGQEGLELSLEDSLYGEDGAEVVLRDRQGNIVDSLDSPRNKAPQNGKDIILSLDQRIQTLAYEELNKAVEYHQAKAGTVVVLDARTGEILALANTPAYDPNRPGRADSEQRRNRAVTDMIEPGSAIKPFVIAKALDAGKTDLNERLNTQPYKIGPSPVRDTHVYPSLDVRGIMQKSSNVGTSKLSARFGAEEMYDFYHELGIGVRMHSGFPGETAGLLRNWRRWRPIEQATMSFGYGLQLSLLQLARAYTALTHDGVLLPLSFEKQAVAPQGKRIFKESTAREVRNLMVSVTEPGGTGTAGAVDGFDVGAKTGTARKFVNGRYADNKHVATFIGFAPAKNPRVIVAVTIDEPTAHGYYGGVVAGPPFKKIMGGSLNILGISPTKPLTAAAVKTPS

Structure (SMILES) | P. aeruginosa PBP3 Potency (P. aeruginosa PBP3) | EC50 (N. gonorrhoeae PBP2) [µM]
CCN1CCN(C(=O)N[C@H](C(=O)N[C@H]2Cc3cccc(C(=O)O)c3OB2O)c2ccc(C(=O)O)cc2)C(=O)C1=O (single isomer, unassigned) [Example 123] | D (D represents a potency <10 μM) | < 10
NCCCN1CCN(C(=O)NC(C(=O)N[C@H]2Cc3ccc(F)c(C(=O)O)c3OB2O)c2c(F)cc(O)cc2F)C(=O)C1=O (stereo partly drawn) [Example 178, (3R)-3-(2-(4-(3-aminopropyl)-2,3-dioxopiperazine-1-carboxamido)-2-(2,6-difluoro-4-hydroxyphenyl)acetamido)-7-fluoro-2-hydroxy-3,4-dihydro-2H-benzo[e][1,2]oxaborinine-8-carboxylic acid] | D (D represents a potency <10 μM) | > 100
CCN1CCN(C(=O)N[C@H](C(=O)N[C@H]2Cc3cccc(C(=O)O)c3OB2O)c2ccc(C(=O)O)cc2Cl)C(=O)C1=O (single isomer, unassigned) [Example 152] | D (D represents a potency <10 μM) | 10 to 30
CCN1CCN(C(=O)N[C@H](C(=O)N[C@H]2Cc3cccc(C(=O)O)c3OB2O)c2cc(F)c(C(=O)O)cc2Cl)C(=O)C1=O (single isomer, unassigned) [Example 149] | C (C represents a potency between 10 and 30 μM) | 30 to 100
CCN1CCN(C(=O)N[C@@H](C(=O)N[C@H]2Cc3cccc(C(=O)O)c3OB2O)c2ccc(C(=O)O)c(F)c2F)C(=O)C1=O (single isomer, unassigned) [Example 140] | D (D represents a potency <10 μM) | < 10
CCN1CCN(C(=O)N[C@@H](C(=O)N[C@H]2Cc3cccc(C(=O)O)c3OB2O)c2ccc(C(=O)O)cc2Cl)C(=O)C1=O (single isomer, unassigned) [Example 151] | D (D represents a potency <10 μM) | < 10
CCN1CCN(C(=O)N[C@H](C(=O)N[C@H]2Cc3cccc(C(=O)O)c3OB2O)c2ccc(C(=O)O)c(Cl)c2)C(=O)C1=O (single isomer, unassigned) [Example 155] | D (D represents a potency <10 μM) | < 10
CCN1CCN(C(=O)N[C@@H](C(=O)N[C@H]2Cc3cccc(C(=O)O)c3OB2O)c2cc(F)c(C(=O)O)cc2Cl)C(=O)C1=O (single isomer, unassigned) [Example 148] | D (D represents a potency <10 μM) | < 10
NCCN1CCN(C(=O)N[C@@H](C(=O)N[C@H]2Cc3cccc(C(=O)O)c3OB2O)c2cc(F)c(O)c(F)c2)C(=O)C1=O (single isomer, unassigned) [Example 159] | D (D represents a potency <10 μM) | < 10
NC1(CN2CCN(C(=O)N[C@@H](C(=O)N[C@H]3Cc4cccc(C(=O)O)c4OB3O)c3c(F)cc(O)cc3F)C(=O)C2=O)CC1 (single isomer, unassigned) [Example 121] | D (D represents a potency <10 μM) | 
CCN1CCN(C(=O)NC(C(=O)N[C@H]2Cc3cccc(C(=O)O)c3OB2O)c2c(F)cc(O)cc2F)C(=O)C1=O (stereo partly drawn) [Example 105, (3R)-3-(2-(2,6-difluoro-4-hydroxyphenyl)-2-(4-ethyl-2,3-dioxopiperazine-1-carboxamido)acetamido)-2-hydroxy-3,4-dihydro-2H-benzo[e][1,2]oxaborinine-8-carboxylic acid] | D (D represents a potency <10 μM) | 
NS(=O)(=O)Nc1cccc(C(NC(=O)N2CCN(CCF)C(=O)C2=O)C(=O)N[C@H]2Cc3cccc(C(=O)O)c3OB2O)c1 (stereo partly drawn) [Example 116, (3R)-3-(2-(4-(2-fluoroethyl)-2,3-dioxopiperazine-1-carboxamido)-2-(3-(sulfamoylamino)phenyl)acetamido)-2-hydroxy-3,4-dihydro-2H-benzo[e][1,2]oxaborinine-8-carboxylic acid] | D (D represents a potency <10 μM) | 
CCN1CCN(C(=O)NC(C(=O)N[C@H]2Cc3cccc(C(=O)O)c3OB2O)c2c(F)cc(C(=O)O)cc2F)C(=O)C1=O (stereo partly drawn) [Example 157, (3R)-3-(2-(4-carboxy-2,6-difluorophenyl)-2-(4-ethyl-2,3-dioxopiperazine-1-carboxamido)acetamido)-2-hydroxy-3,4-dihydro-2H-benzo[e][1,2]oxaborinine-8-carboxylic acid] | D (D represents a potency <10 μM) | 
CCN1CCN(C(=O)NC(C(=O)N[C@H]2Cc3cccc(C(=O)O)c3OB2O)c2cc(Cl)c(C(=O)O)cc2F)C(=O)C1=O (stereo partly drawn) [Example 138, (3R)-3-(2-(4-carboxy-5-chloro-2-fluorophenyl)-2-(4-ethyl-2,3-dioxopiperazine-1-carboxamido)acetamido)-2-hydroxy-3,4-dihydro-2H-benzo[e][1,2]oxaborinine-8-carboxylic acid] | D (D represents a potency <10 μM) | 
CCN1CCN(C(=O)NC(C(=O)N[C@H]2Cc3cccc(C(=O)O)c3OB2O)c2cccc(CNS(N)(=O)=O)c2)C(=O)C1=O (stereo partly drawn) [Example 107, (3R)-3-(2-(4-ethyl-2,3-dioxopiperazine-1-carboxamido)-2-(3-((sulfamoylamino)methyl)phenyl)acetamido)-2-hydroxy-3,4-dihydro-2H-benzo[e][1,2]oxaborinine-8-carboxylic acid] | D (D represents a potency <10 μM) | 
CCN1CCN(C(=O)NC(C(=O)N[C@H]2Cc3cccc(C(=O)O)c3OB2O)c2cncc(O)c2)C(=O)C1=O (stereo partly drawn) [Example 112, (3R)-3-(2-(4-ethyl-2,3-dioxopiperazine-1-carboxamido)-2-(5-hydroxypyridin-3-yl)acetamido)-2-hydroxy-3,4-dihydro-2H-benzo[e][1,2]oxaborinine-8-carboxylic acid] | D (D represents a potency <10 μM) | 
NCCCN1CCN(C(=O)N[C@@H](C(=O)N[C@H]2Cc3cccc(C(=O)O)c3OB2O)c2cccc(NS(N)(=O)=O)c2)C(=O)C1=O [Example 117, (R)-3-((R)-2-(4-(3-aminopropyl)-2,3-dioxopiperazine-1-carboxamido)-2-(3-(sulfamoylamino)phenyl)acetamido)-2-hydroxy-3,4-dihydro-2H-benzo[e][1,2]oxaborinine-8-carboxylic acid] | D (D represents a potency <10 μM) | 
CCN1CCN(C(=O)NC(C(=O)N[C@H]2Cc3cccc(C(=O)O)c3OB2O)c2cc(F)c(C(=O)O)c(F)c2)C(=O)C1=O (stereo partly drawn) [Example 141, (3R)-3-(2-(4-carboxy-3,5-difluorophenyl)-2-(4-ethyl-2,3-dioxopiperazine-1-carboxamido)acetamido)-2-hydroxy-3,4-dihydro-2H-benzo[e][1,2]oxaborinine-8-carboxylic acid] | D (D represents a potency <10 μM) | 
CCN1CCN(C(=O)NC(C(=O)N[C@H]2Cc3ccc(F)c(C(=O)O)c3OB2O)c2c(F)cc(O)cc2F)C(=O)C1=O (stereo partly drawn) [Example 130, (3R)-3-(2-(2,6-difluoro-4-hydroxyphenyl)-2-(4-ethyl-2,3-dioxopiperazine-1-carboxamido)acetamido)-7-fluoro-2-hydroxy-3,4-dihydro-2H-benzo[e][1,2]oxaborinine-8-carboxylic acid] | D (D represents a potency <10 μM) | 
CCN1CCN(C(=O)NC(C(=O)N[C@H]2Cc3cccc(C(=O)O)c3OB2O)c2c(Cl)cc(C(=O)O)cc2Cl)C(=O)C1=O (stereo partly drawn) [Example 150, (3R)-3-(2-(4-carboxy-2,6-dichlorophenyl)-2-(4-ethyl-2,3-dioxopiperazine-1-carboxamido)acetamido)-2-hydroxy-3,4-dihydro-2H-benzo[e][1,2]oxaborinine-8-carboxylic acid] | D (D represents a potency <10 μM) | 
